Read-outs that look alike come from different tables or passages of the source.

Data on four compounds can be found in US11413296B2, “Viscous budesonide for the treatment of inflammatory diseases of the gastrointestinal tract” (The Regents of the University of California, priority 2005, dated 2022).

The test relates to children with EE. The test is classed as in vivo, human. The text has this:
Patient 1 was a person with a history of abdominal pain, failure to thrive, and vomiting since infancy, and developmental delay with isolated EE diagnosed in 2001. Their allergic history was significant for allergic rhinitis secondary to cat, dog, and dust mite exposure as well as positive Pharmacia CAP radioallergosorbent testing for fish and milk. […] They were referred to Children's Hospital Eosinophilic Gastrointestinal Disorders clinic for further management of EE recalcitrant to usual therapy. At the time of their referral, they continued to have vomiting and poor weight gain and their parent reported significant difficulty with the puff and swallow technique. They were placed on a regimen of twice daily oral budesonide suspension (Pulmicort®) 500 micrograms (4 ml) mixed with about 10 packets (1 gram each) sucralose (Splenda®), a non-absorbed sugar in order to increase fluid viscosity to be swallowed twice daily. The total volume of the preparation was about 7 to 8 ml. […] Eight am cortisol was 13.2 mcg/dL (normal range for age 3-15 mcg/dL) after four months of therapy.
Patient 2 was a child with a history of developmental delay, abdominal pain, and RAST positivity for milk, egg, and wheat. […] They were placed on a hydrolyzed formula containing milk protein (Peptamen Jr®), omeprazole 10 mg twice daily and oral cromolyn (Gastrocrom®) 100 mg four times daily. […] They were referred to the Children's Hospital Eosinophilic Gastrointestinal Disorders clinic for further management. […] After two months of elemental formula and oral cromolyn sodium, EGD was unchanged with a pale, furrowed esophagus and maximal eosinophil counts of 100, 90, and 70 per hpf in the distal, mid, and proximal esophagus with diffuse basal zone hyperplasia. Their developmental delay precluded the use of a fluticasone inhaler devise with puff and swallow technique. As an alternative, they received oral budesonide 500 micrograms (Pulmicort®) mixed with sucralose (Splenda®) twice daily as topical esophageal therapy.

Setting [1] is: Patient 2, elemental formula and oral cromolyn sodium, two months.
Setting [2] is: Patient 2, hydrolyzed formula, omeprazole and oral cromolyn 100 mg four times daily, 12 months.

For `CCC(=O)O[C@]1(C(=O)SCF)[C@H](C)C[C@H]2[C@@H]3C[C@H](F)C4=CC(=O)C=C[C@]4(C)[C@@]3(F)[C@@H](O)C[C@@]21C` [fluticasone], for the setting “Patient 1, elemental formula and fluticasone, accompanied by basal zone hyperplasia”, the maximal eosinophil count is 74 per hpf. Also, the maximum eosinophil count (Patient 1, omeprazole 10 mg twice daily and fluticasone 220 ug twice daily, after 6 months) is reported as 50 per hpf.

With `CCCC1O[C@@H]2C[C@H]3[C@@H]4CCC5=CC(=O)C=C[C@]5(C)[C@H]4[C@@H](O)C[C@]3(C)[C@]2(C(=O)CO)O1` (stereo partly drawn) [budesonide, 16,17-(butylidenebis(oxy))-11,21-dihydroxy-, (11-β,16-α)-pregna-1,4-diene-3,20-dione], the “maximum eosinophil count, proximal esophagus” value (Patient 2 (70 before), oral budesonide 500 micrograms mixed with sucralose twice daily, 3 months) is recorded as 5 per hpf. In addition, under “Patient 2 (90 before), oral budesonide 500 micrograms mixed with sucralose twice daily, 3 months”, the “maximum eosinophil count, mid esophagus” value was found to be 20 per hpf. For the same compound, the “maximum eosinophil count, distal esophagus” value (Patient 2 (100 before), oral budesonide 500 micrograms (Pulmicort) mixed with sucralose twice daily, 3 months) came out at 28 per hpf.

With `O=C(O)c1cc(=O)c2c(OCC(O)COc3cccc4oc(C(=O)O)cc(=O)c34)cccc2o1` [cromolyn], the “maximum eosinophil count, distal esophagus” value (Patient 2 (40 per hpf before), hydrolyzed formula (Peptamen Jr), omeprazole 10 mg twice daily and oral cromolyn 100 mg four times daily, 12 months) was found to be 94 per hpf. Besides, under setting [1], the “maximal eosinophil count, distal esophagus” value came out at 100 per hpf; the “maximal eosinophil count, mid esophagus” value is 90 per hpf; the “maximal eosinophil count, proximal esophagus” value worked out at 70 per hpf. Further, under setting [2], the “maximum eosinophil count, mid esophagus” value is on record as 65 per hpf and the “maximum eosinophil count, proximal esophagus” value was determined as 90 per hpf.

On to `C[C@]12C=CC(=O)C=C1CC[C@@H]1[C@@H]2C(=O)C[C@@]2(C)[C@H]1CC[C@]2(O)C(=O)CO` [prednisone], for which the “maximum eosinophils per hpf on repeat EGD with biopsy” value (Patient 1 (EE, 60 per hpf at diagnosis), oral prednisone 0.5 mg per kg daily for one month) worked out at 2 per hpf.
